Test results taken from ChEMBL document CHEMBL1130750, “Heteroatom-substitution as a strategy for increasing the potency of competitive NMDA antagonists” (Bioorg Med Chem Lett, 1998).

Key:
Mus musculus = assay: In vivo minimum effective dose required to block NMDA induced lethality in Mice following i.p. administration; format: functional; details: ip, read-out: MED
Glutamate NMDA receptor [1] = assay: In vitro ability to inhibit depolarizations induced by 40 uM NMDA in a cortical slice (NMDA antagonist); format: functional
Glutamate NMDA receptor [2] = assay: Compound was tested in vitro for its ability to inhibit depolarizations induced by 40 uM NMDA in a cortical slice (NMDA antagonist); format: functional
Glutamate NMDA receptor [3] = assay: Compound was tested in vitro for inhibition of binding of [3H]-CGS- 19755 radioligand to NMDA receptor in rat brain membranes; format: cell membranes
[4] = biological target: T1, Glutamate NMDA receptor (Rattus norvegicus) (UniProt P35439+Q00959+Q00960+Q00961+Q62645+Q8VHN2+Q9R1M7); assay: In vitro percent inhibition of depolarizations induced by 10 uM NMDA in a cortical slice (NMDA antagonist); format: functional
[5] = biological target: T1, Glutamate NMDA receptor (Rattus norvegicus); assay: In vitro percent inhibition of depolarizations induced by 3.2 uM NMDA in a cortical slice ( NMDA antagonist); format: functional
Glutamate NMDA receptor [6] = assay: Compound was tested in vitro for its ability to inhibit depolarizations induced by 40 uM NMDA in a cortical slice(NMDA antagonist); format: functional

| SMILES | minimal effective dose (Mus musculus) [mg/kg] | IC50 (Glutamate NMDA receptor [3]) [nM] | also measured |
| --- | --- | --- | --- |
| O=C(O)[C@H]1C[C@@H](CCCc2nnn[nH]2)CCN1 | 10 | – | IC50 (Glutamate NMDA receptor [1]): 12400 nM |
| O=C(O)[C@H]1C[C@@H](COCc2nn[nH]n2)CCN1 | 80 | 8300 | IC50 (Glutamate NMDA receptor [2]): 34500 nM |
| O=C(O)[C@H]1C[C@@H](Cc2nnn[nH]2)CCN1 | 5 | 17 | – |
| O=C(O)[C@H]1C[C@H](Sc2nn[nH]n2)CCN1 | – | 75 | inhibition [4]: 75%; inhibition [5]: 20% |
| O=C(O)[C@H]1C[C@@H](CCc2nnn[nH]2)CCN1 | 20 | 2300 | IC50 (Glutamate NMDA receptor [6]): 8100 nM |
| O=C(O)[C@H]1C[C@@H](CSc2nn[nH]n2)CCN1 | – | 1300 | – |
| O=C(O)[C@H]1C[C@@H](Sc2nn[nH]n2)CCN1 | – | 110 | – |
| O=C(O)[C@H]1C[C@@H](OCc2nn[nH]n2)CCN1 | 2.5 | 280 | IC50 (Glutamate NMDA receptor [2]): 4700 nM |
